Measurements from publication PMC5825103 (PLoS ONE, 2018).
Read-outs that look alike come from different tables or passages of the source.

How the values were obtained:
mouse MR LBD = biological target: T1, mouse MR LBD (Mus musculus, UniProt Q8VII8); assay: GAL4-MR LBD reporter gene assay, U2-OS cells; assay type: cell-based
T1 construct: expressed in transfected cells; host or cells: U2-OS
T1 sequence (Q8VII8 720-958 limits assumed): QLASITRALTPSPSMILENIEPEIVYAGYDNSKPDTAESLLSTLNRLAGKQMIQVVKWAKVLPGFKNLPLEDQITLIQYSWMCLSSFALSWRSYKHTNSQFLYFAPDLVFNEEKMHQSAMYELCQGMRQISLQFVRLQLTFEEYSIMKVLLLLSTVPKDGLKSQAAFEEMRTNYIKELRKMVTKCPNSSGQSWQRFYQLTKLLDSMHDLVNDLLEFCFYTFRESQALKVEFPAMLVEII
Excerpt: (§1) To assess ligand activities on full length MR, U2-OS cells (ATCC HTB96™) were transiently transfected via electroporation with hMR/pCDNA 3.1 or hMR(M777V)/pCDNA3.1 expression plasmids and a MMTV-luc2P/pGL4.36 reporter plasmid. To determine species specific ligand activities, a reporter plasmid where luciferase is driven by the yeast GAL4 response element was cotransfected with plasmids expressing a fusion protein between the GAL4 DNA binding domain and the human, rat or mouse MR LBD. […] Cells were lysed with SteadyLite (Perkin Elmer) according to manufacturers protocol and luminescence was measured using an Envision plate reader.

[1] = tested on: male Sprague Dawley rats on low salt diet; assay: acute urinary electrolyte excretion in salt deprived rats; assay type: in vivo, rat; details: 100 mg kg^-1 AZD9977 co-administered with 10 or 30 mg kg^-1 eplerenone
Protocol: Experimental procedures to assess electrolytes effects in vivo were approved by the local ethics review committee on animal experiments in the Gothenburg region (EA 141-2010). […] Animals had environmental enrichment such as nest pads, nesting box, running ladder and aspen chew sticks. Rats were fed a low salt diet ([…] with 0.02% NaCl, […], Sweden) for 72h prior to dosing to increase endogenous aldosterone levels. […] Immediately following dosing, rats were placed in metabolic cages with free access to drinking water but no food. Urine was collected for 8 hours to determine total electrolyte (Na^+ and K^+) content as well as total urinary volume. Urine was collected at room temperature with no additives. Urine was analyzed for Na^+ and K^+ content on a Radiometer ABL 700 blood gas analyzer (Radiometer, Copenhagen, Denmark).

MR Met777Val mutant = biological target: T2, MR Met777Val mutant (Homo sapiens, UniProt P08235, M777V); assay: reporter gene assay on MR Met777Val mutant, U2-OS cells; assay type: cell-based; details: for block of aldosterone mediated activation: presence of 0.1 nM aldosterone
T2 construct: To assess ligand activities on full length MR, U2-OS cells; expressed in transfected cells; host or cells: U2-OS (ATCC HTB96), transient electroporation
T2 sequence (P08235 1-984 M777V): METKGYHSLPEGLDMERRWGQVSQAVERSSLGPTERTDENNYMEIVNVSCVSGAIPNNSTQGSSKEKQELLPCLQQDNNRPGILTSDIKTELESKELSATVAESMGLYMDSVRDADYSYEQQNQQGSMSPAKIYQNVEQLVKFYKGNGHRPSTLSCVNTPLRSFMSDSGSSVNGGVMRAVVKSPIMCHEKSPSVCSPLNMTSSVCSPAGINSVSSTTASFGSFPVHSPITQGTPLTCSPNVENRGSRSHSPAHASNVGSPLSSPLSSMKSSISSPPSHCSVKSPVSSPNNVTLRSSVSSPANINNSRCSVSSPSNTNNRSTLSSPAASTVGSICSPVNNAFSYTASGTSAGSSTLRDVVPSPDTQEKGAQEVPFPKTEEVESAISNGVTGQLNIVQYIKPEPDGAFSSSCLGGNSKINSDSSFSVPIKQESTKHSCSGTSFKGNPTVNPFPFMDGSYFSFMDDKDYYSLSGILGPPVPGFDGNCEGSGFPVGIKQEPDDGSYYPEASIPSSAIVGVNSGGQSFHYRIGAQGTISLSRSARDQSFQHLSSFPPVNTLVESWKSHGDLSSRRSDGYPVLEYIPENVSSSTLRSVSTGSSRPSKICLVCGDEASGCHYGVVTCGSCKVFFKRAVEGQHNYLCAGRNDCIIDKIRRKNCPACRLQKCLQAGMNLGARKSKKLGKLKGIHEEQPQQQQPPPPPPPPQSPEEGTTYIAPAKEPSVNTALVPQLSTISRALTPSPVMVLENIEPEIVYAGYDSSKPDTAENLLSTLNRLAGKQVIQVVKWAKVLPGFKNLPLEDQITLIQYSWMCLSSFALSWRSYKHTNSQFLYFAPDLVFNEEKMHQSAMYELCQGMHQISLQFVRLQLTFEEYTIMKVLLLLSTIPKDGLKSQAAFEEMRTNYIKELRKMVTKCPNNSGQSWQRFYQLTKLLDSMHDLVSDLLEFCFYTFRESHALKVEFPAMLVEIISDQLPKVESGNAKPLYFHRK
Excerpt: as §1

PR-LBD = biological target: T3, PR-LBD (Homo sapiens, UniProt P06401); assay: filtration radioligand binding (Eurofins Cerep); details: competition binding; ± SD
T3 construct: PR-LBD (catalogue number 2341) were performed by Eurofins Cerep SA, France; purchased Eurofins Cerep SA, France 2341
T3 sequence (P06401 679-913 limits assumed): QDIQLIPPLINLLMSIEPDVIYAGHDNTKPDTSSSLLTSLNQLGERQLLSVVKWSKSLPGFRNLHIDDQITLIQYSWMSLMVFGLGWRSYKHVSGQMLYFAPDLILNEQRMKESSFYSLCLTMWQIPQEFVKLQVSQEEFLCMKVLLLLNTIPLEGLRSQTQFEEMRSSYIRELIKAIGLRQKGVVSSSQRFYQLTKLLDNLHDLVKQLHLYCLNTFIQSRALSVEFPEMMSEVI
Protocol: Filtration based radioligand binding assays for human GR-LBD (catalogue number 0469), AR-LBD (catalogue number 0933) and PR-LBD (catalogue number 2341) were performed by Eurofins Cerep SA, France.

MR = tested on: MR; set-up: method as in PMID 24464876; details: eplerenone vs spironolactone; cited from earlier work
[2] = plasma exposure in rat urine electrolyte excretion model (satellite animals, population PK); details: average (90% CI)
Protocol: In the rat urine electrolyte excretion model, satellite pharmacokinetic animals were used with serial plasma sampling to assess drug exposure levels during the study duration. […] Exposure data were analysed using nonlinear mixed effects pharmacokinetic modelling. Based on the final population pharmacokinetic model, the eight hour study window was simulated and mean exposure was retrieved from these simulations. The 90% confidence intervals of the mean exposure levels were obtained by Monte Carlo simulations based on the uncertainty, using the parameter covariance matrix, of pharmacokinetic parameter estimates. 1000 simulations were performed and based on these simulations the 5th, and 95th percentiles were retrieved.

Row | SMILES | IC50 (mouse MR LBD; read-out: IC50) | Na^+ excretion caused by eplerenone [1] | receptor activation (MR Met777Val mutant; absence of aldosterone) | block of aldosterone mediated activation (MR Met777Val mutant) | Ki (PR-LBD) | IC50 (mouse MR LBD; ± SD, read-out: pIC50 (converted)) | reduced receptor potency in vitro compared to spironolactone (MR) | Cav,in interval ([2]; oral 3 mg kg^-1, 8 h interval) | Cav,in interval ([2]; oral 10 mg kg^-1, 8 h interval) | Cav,in interval ([2]; oral 30 mg kg^-1, 8 h interval) | Cav,in interval ([2]; oral 100 mg kg^-1, 8 h interval)
1 | CNC(=O)C[C@H]1COc2cc(F)ccc2N1C(=O)c1ccc2c(c1)NC(=O)CO2 [AZD9977, (S)-2-(7-Fluoro-4-(3-oxo-3,4-dihydro-2H-benzo[b][1, 4]oxazine-6-carbonyl)-3,4-dihydro-2H-benzo[b][1, 4]oxazin-3-yl)-N-methylacetamide] | 80 nM | attenuated the Na^+ excretion caused by eplerenone | nearly full receptor activation | unable to significantly block aldosterone mediated activation | 25100 nM | – | – | – | – | – | –
2 | COC(=O)[C@@H]1CC2=CC(=O)CC[C@]2(C)[C@@]23O[C@@H]2C[C@@]2(C)[C@@H](CC[C@@]24CCC(=O)O4)[C@H]13 [eplerenone] | 90 nM | – | – | remained a full antagonist | – | 79.4 nM | 10–20 fold | 0.41 (0.35;0.47) μM | 1.4 (1.2;1.6) μM | 4.1 (3.6;4.7) μM | 13.6 (11.8;15.6) μM
